Assay results as given in patent publication EP0238060B1, “Cephalosporin derivatives, processes for their preparation and antibacterial agents” (Banyu Pharmaceutical Co., Ltd., priority 1986, dated 1987).
Converted amounts (≈) assume the structure as drawn.

Key:
A.calcoaceticus No. 4 = test: In vitro antibacterial activity, agar plate dilution method (MIC); assay type: cell-based; details: Acinetobacter calcoaceticus, NO.4, 16 h, read-out: Minimum Inhibitory Concentration (MIC: µg/ml)
C.freundii GN346/16 = test: as above; assay type: cell-based; details: Citrobacter freundii, GN346, 16 h, read-out: Minimum Inhibitory Concentration (MIC: µg/ml)
C.freundii GN346 = test: as above; assay type: cell-based; details: Citrobacter freundii, GN346, 16 h, read-out: Minimum Inhibitory Concentration (MIC: µg/ml)
E.cloacae 963 = test: as above; assay type: cell-based; details: Enterobacter cloacae, 963, 16 h, read-out: Minimum Inhibitory Concentration (MIC: µg/ml)
E.cloacae Nek 39 = test: as above; assay type: cell-based; details: Enterobacter cloacae, NEK39, 16 h, read-out: Minimum Inhibitory Concentration (MIC: µg/ml)
E.coli CSH(RE45) = test: as above; assay type: cell-based; details: Escherichia coli, 16 h, read-out: Minimum Inhibitory Concentration (MIC: µg/ml)
E.coli CSH2 (RK1) = test: as above; assay type: cell-based; details: Escherichia coli, 16 h, read-out: Minimum Inhibitory Concentration (MIC: µg/ml)
E.coli GN5482 = test: as above; assay type: cell-based; details: Escherichia coli, GN5482, 16 h, read-out: Minimum Inhibitory Concentration (MIC: µg/ml)
E.coli NIHJ JC2 = test: as above; assay type: cell-based; details: Escherichia coli, NIHJJC2, 16 h, read-out: Minimum Inhibitory Concentration (MIC: µg/ml)
K.oxytoca GN10650 = test: as above; assay type: cell-based; details: Klebsiella oxytoca, GN10650, 16 h, read-out: Minimum Inhibitory Concentration (MIC: µg/ml)
K.pneumoniae No. 42 = test: as above; assay type: cell-based; details: Klebsiella pneumoniae, NO.42, 16 h, read-out: Minimum Inhibitory Concentration (MIC: µg/ml)
K.pneumoniae PCI-602 = test: as above; assay type: cell-based; details: Klebsiella pneumoniae, PCI602, 16 h, read-out: Minimum Inhibitory Concentration (MIC: µg/ml)
M.luteus ATCC9341 = test: as above; assay type: cell-based; details: Micrococcus luteus, ATCC9341, 16 h, read-out: Minimum Inhibitory Concentration (MIC: µg/ml)
M.morganii GN5407 = test: as above; assay type: cell-based; details: Morganella morganii, GN5407, 16 h, read-out: Minimum Inhibitory Concentration (MIC: µg/ml)
P.vulgaris HX-19 = test: as above; assay type: cell-based; details: Proteus vulgaris, HX19, 16 h, read-out: Minimum Inhibitory Concentration (MIC: µg/ml)
P.vulgaris No. 33 = test: as above; assay type: cell-based; details: Proteus vulgaris, NO.33, 16 h, read-out: Minimum Inhibitory Concentration (MIC: µg/ml)
Ps.aeruginosa AK 109 = test: as above; assay type: cell-based; details: Pseudomonas aeruginosa, AK109, 16 h, read-out: Minimum Inhibitory Concentration (MIC: µg/ml)
Ps.aeruginosa AKR17 = test: as above; assay type: cell-based; details: Pseudomonas aeruginosa, AKR17, 16 h, read-out: Minimum Inhibitory Concentration (MIC: µg/ml)
Ps.aeruginosa IFO3445 = test: as above; assay type: cell-based; details: Pseudomonas aeruginosa, IFO3445, 16 h, read-out: Minimum Inhibitory Concentration (MIC: µg/ml)
S.aureus 209P NIHJ-JC1 = test: as above; assay type: cell-based; details: Staphylococcus aureus, 16 h, read-out: Minimum Inhibitory Concentration (MIC: µg/ml)
S.aureus BB5703 = test: as above; assay type: cell-based; details: Staphylococcus aureus, BB5703, 16 h, read-out: Minimum Inhibitory Concentration (MIC: µg/ml)
S.aureus JS1 = test: as above; assay type: cell-based; details: Staphylococcus aureus, JS1, 16 h, read-out: Minimum Inhibitory Concentration (MIC: µg/ml)
S.epidermidis IAM12012 = test: as above; assay type: cell-based; details: Staphylococcus epidermidis, IAM12012, 16 h, read-out: Minimum Inhibitory Concentration (MIC: µg/ml)
S.marcescens IAM 1184 = test: as above; assay type: cell-based; details: Serratia marcescens, IAM1184, 16 h, read-out: Minimum Inhibitory Concentration (MIC: µg/ml)
S.marcescens No. 16-2 = test: as above; assay type: cell-based; details: Serratia marcescens, NO.162, 16 h, read-out: Minimum Inhibitory Concentration (MIC: µg/ml)
Ps.cepacia 23 = test: as above; assay type: cell-based, Pseudomonas cepacia; details: Burkholderia cepacia, 23, 16 h, read-out: Minimum Inhibitory Concentration (MIC: µg/ml)
Ps.maltophilia GN 12873 = test: as above; assay type: cell-based, Pseudomonas maltophilia; details: Stenotrophomonas maltophilia, GN12873, 16 h, read-out: Minimum Inhibitory Concentration (MIC: µg/ml)
[1] = test system: Enterobacter cloacae GN 5797; test: Induction of β-lactamase by β-lactam antibiotics; assay type: cell-based
Procedure: The assay method for induction of β-lactamase by β-latam antibiotics was as follows: The test organism, Enterobacter cloacae GN 5797, was grown overnight in Mueller Hinton broth (Dlfco Laboratories, Detroit, Mich.) at 37°C. The culture was diluted l0-fold into 20 ml of the flesh medium and incubated with shaking at 37°C. After 2 hours of incubation, antibiotics were added to final concentrations of 50 µg/ml, l0 µg/ml and l µg/ml, and the incubation was continued. At l hour intervals after the addition of antibiotic, 5 ml of sample was taken, and immediately added with 0.l ml of 50 mM sodium azide. The cells were harvested and washed with 50 mM phosphate buffer (pH 7.0). The cells were suspended in 5 ml of 50 mM phosphate buffer and disrupted with a sonicater in an ice-water bath. The broken cells were centrifuged at l6,500 G for 40 minutes at 4°C, and the resulting supernatant fluid was used as the crude enzyme. β-Lactamase activity was determined by a spectrophotometric method (Antmicrob. Agents Chemother. 17, 355-358, 1980) with cephaloridine as substrate. The concentration of protein was determined by the method of Lowry (J. Biol. Chem. 193, 265-275, 1951).

Work on `CC(C)(O/N=C(\C(=O)NC1C(=O)N2C(C(=O)[O-])=C(C[n+]3ccc4cc(O)c(O)cc4c3)CSC12)c1csc(N)n1)C(=O)O` (stereo not drawn) [Ex. 4, 7-[2-(2-aminothiazol-4-yl)-2-(l-carboxy-l-methylethoxyimino)acetamido]-3-(6,7-dihydroxy-2-isoquinolinio)methyl-3-cephem-4-carboxylate] yielded an MIC (A.calcoaceticus No. 4) of 0.1 µg/mL (≈ 0.159 µM), an MIC (C.freundii GN346/16) of 1.56 µg/mL (≈ 2.48 µM) and an MIC (C.freundii GN346) of 50 µg/mL (≈ 79.5 µM). The MIC (E.cloacae 963) was 0.025 µg/mL (≈ 0.0398 µM), the MIC (E.cloacae Nek 39) was 0.025 µg/mL (≈ 0.0398 µM) and the MIC (E.coli CSH(RE45)) was 0.39 µg/mL (≈ 0.62 µM). It also gave an MIC (E.coli CSH2 (RK1)) of less than 0.006 µg/mL, an MIC (E.coli GN5482) of 0.39 µg/mL (≈ 0.62 µM) and an MIC (E.coli NIHJ JC2) of 0.1 µg/mL (≈ 0.159 µM). It also gave an MIC (K.oxytoca GN10650) of less than 0.006 µg/mL, an MIC (K.pneumoniae No. 42) of 0.025 µg/mL (≈ 0.0398 µM) and an MIC (K.pneumoniae PCI-602) of less than 0.006 µg/mL. It also gave an MIC (M.luteus ATCC9341) of 6.25 µg/mL (≈ 9.94 µM), an MIC (M.morganii GN5407) of 0.05 µg/mL (≈ 0.0795 µM) and an MIC (P.vulgaris HX-19) of less than 0.006 µg/mL. The MIC (P.vulgaris No. 33) was 0.0125 µg/mL (≈ 0.0199 µM), the MIC (Ps.aeruginosa AK 109) was 0.2 µg/mL (≈ 0.318 µM) and the MIC (Ps.aeruginosa AKR17) was 0.78 µg/mL (≈ 1.24 µM). For the same molecule, the MIC (Ps.aeruginosa IFO3445) was 0.2 µg/mL (≈ 0.318 µM), the MIC (S.aureus 209P NIHJ-JC1) was 25 µg/mL (≈ 39.8 µM) and the MIC (S.aureus BB5703) was 50 µg/mL (≈ 79.5 µM). For the same molecule, the MIC (S.aureus JS1) was 100 µg/mL (≈ 159 µM), the MIC (S.epidermidis IAM12012) was 12.5 µg/mL (≈ 19.9 µM) and the MIC (S.marcescens IAM 1184) was 0.0125 µg/mL (≈ 0.0199 µM). It also gave an MIC (S.marcescens No. 16-2) of 0.2 µg/mL (≈ 0.318 µM), an MIC (Ps.cepacia 23) of less than 0.006 µg/mL and an MIC (Ps.maltophilia GN 12873) of 1.56 µg/mL (≈ 2.48 µM). For the same molecule, the “Specific activity (unit/mg protein)” value ([1]; induced β-lactamase activity of crude enzyme, Concentration 10 µg/ml, Incubation time 3 hr, Substrate: 100 µM of cephaloridine) was 0.064 unit/mg protein and the β-lactamase inducibility ([1]; measured by Enterobacter cloacae GN 5797) was “no substantial β-lactamase-inducing activity was observed”.
